# According to publication PMC6905088 (Biochemical pharmacology, 2019):
# Values joined by “and” are separate entries in the source; they are usually repeats but may differ in a detail not shown here. Equal values may be shown once. “Also recorded” adds a separate entry of the source. Read-outs that look alike come from different tables or passages of the source.
# T1: CYP2B6 (Homo sapiens, UniProt P20813)
# T1 sequence (P20813 1-491): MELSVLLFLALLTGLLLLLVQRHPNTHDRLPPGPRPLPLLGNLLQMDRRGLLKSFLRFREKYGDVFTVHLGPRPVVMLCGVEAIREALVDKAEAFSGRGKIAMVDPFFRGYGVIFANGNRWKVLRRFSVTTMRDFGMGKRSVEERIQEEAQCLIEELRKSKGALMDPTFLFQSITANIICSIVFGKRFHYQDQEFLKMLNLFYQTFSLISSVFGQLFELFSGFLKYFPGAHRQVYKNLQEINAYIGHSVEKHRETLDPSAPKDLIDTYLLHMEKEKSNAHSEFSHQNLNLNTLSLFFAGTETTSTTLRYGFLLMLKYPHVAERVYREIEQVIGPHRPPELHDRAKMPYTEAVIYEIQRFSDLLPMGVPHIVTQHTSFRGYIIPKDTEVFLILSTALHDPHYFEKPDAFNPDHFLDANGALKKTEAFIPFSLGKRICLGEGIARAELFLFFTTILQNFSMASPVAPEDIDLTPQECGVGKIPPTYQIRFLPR
# T2: CYP2A6 (Homo sapiens, UniProt P11509)
# T2 sequence (P11509 1-494): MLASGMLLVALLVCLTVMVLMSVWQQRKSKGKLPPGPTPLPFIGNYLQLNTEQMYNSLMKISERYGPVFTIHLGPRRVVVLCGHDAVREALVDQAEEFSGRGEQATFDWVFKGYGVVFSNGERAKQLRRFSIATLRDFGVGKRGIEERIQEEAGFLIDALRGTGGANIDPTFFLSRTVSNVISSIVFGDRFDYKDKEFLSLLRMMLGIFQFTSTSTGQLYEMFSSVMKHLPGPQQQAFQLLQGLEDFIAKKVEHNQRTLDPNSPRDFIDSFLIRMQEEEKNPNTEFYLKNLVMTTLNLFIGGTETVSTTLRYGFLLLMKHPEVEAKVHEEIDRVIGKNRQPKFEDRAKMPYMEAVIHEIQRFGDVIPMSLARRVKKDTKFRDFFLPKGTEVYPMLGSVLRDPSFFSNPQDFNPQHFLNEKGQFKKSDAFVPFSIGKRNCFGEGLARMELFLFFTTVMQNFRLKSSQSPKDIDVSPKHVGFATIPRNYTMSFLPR
# T3: CYP2C8 (Homo sapiens, UniProt P10632)
# T3 sequence (P10632 1-490): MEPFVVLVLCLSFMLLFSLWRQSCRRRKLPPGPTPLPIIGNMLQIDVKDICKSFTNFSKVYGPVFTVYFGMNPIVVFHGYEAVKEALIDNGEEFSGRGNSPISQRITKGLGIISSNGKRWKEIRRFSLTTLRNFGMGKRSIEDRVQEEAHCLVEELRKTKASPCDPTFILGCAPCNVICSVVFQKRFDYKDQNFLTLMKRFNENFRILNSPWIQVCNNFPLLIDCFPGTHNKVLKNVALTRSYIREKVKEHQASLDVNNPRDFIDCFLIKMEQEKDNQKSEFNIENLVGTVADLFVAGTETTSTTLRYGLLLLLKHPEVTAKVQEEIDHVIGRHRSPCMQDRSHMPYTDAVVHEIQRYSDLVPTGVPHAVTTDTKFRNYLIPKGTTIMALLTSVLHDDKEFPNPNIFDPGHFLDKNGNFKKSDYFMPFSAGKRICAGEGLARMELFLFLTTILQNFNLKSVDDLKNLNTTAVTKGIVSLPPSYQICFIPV
# B1: CYP2C8 (Homo sapiens) (protein)
# chain: T3 sequence (P10632 1-490)
# B2: CYP2C9 (Homo sapiens) (protein)
# chain: MDSLVVLVLCLSCLLLLSLWRQSSGRGKLPPGPTPLPVIGNILQIGIKDISKSLTNLSKVYGPVFTLYFGLKPIVVLHGYEAVKEALIDLGEEFSGRGIFPLAERANRGFGIVFSNGKKWKEIRRFSLMTLRNFGMGKRSIEDRVQEEARCLVEELRKTKASPCDPTFILGCAPCNVICSIIFHKRFDYKDQQFLNLMEKLNENIKILSSPWIQICNNFSPIIDYFPGTHNKLLKNVAFMKSYILEKVKEHQESMDMNNPQDFIDCFLMKMEKEKHNQPSEFTIESLENTAVDLFGAGTETTSTTLRYALLLLLKHPEVTAKVQEEIERVIGRNRSPCMQDRSHMPYTDAVVHEVQRYIDLLPTSLPHAVTCDIKFRNYLIPKGTTILISLTSVLHDNKEFPNPEMFDPHHFLDEGGNFKKSKYFMPFSAGKRICVGEALAGMELFLFLTSILQNFNLKSLVDPKNLDTTPVVNGFASVPPFYQLCFIPV
# B3: CYP1A2 (Homo sapiens) (protein)
# chain: MALSQSVPFSATELLLASAIFCLVFWVLKGLRPRVPKGLKSPPEPWGWPLLGHVLTLGKNPHLALSRMSQRYGDVLQIRIGSTPVLVLSRLDTIRQALVRQGDDFKGRPDLYTSTLITDGQSLTFSTDSGPVWAARRRLAQNALNTFSIASDPASSSSCYLEEHVSKEAKALISRLQELMAGPGHFDPYNQVVVSVANVIGAMCFGQHFPESSDEMLSLVKNTHEFVETASSGNPLDFFPILRYLPNPALQRFKAFNQRFLWFLQKTVQEHYQDFDKNSVRDITGALFKHSKKGPRASGNLIPQEKIVNLVNDIFGAGFDTVTTAISWSLMYLVTKPEIQRKIQKELDTVIGRERRPRLSDRPQLPYLEAFILETFRHSSFLPFTIPHSTTRDTTLNGFYIPKKCCVFVNQWQVNHDPELWEDPSEFRPERFLTADGTAINKPLSEKMMLFGMGKRRCIGEVLAKWEIFLFLAILLQQLEFSVPPGVKVDLTPIYGLTMKHARCEHVQARLRFSIN
# B4: CYP2D6 (Homo sapiens) (protein)
# chain: MGLEALVPLAVIVAIFLLLVDLMHRRQRWAARYPPGPLPLPGLGNLLHVDFQNTPYCFDQLRRRFGDVFSLQLAWTPVVVLNGLAAVREALVTHGEDTADRPPVPITQILGFGPRSQGVFLARYGPAWREQRRFSVSTLRNLGLGKKSLEQWVTEEAACLCAAFANHSGRPFRPNGLLDKAVSNVIASLTCGRRFEYDDPRFLRLLDLAQEGLKEESGFLREVLNAVPVLLHIPALAGKVLRFQKAFLTQLDELLTEHRMTWDPAQPPRDLTEAFLAEMEKAKGNPESSFNDENLRIVVADLFSAGMVTTSTTLAWGLLLMILHPDVQRRVQQEIDDVIGQVRRPEMGDQAHMPYTTAVIHEVQRFGDIVPLGVTHMTSRDIEVQGFRIPKGTTLITNLSSVLKDEAVWEKPFRFHPEHFLDAQGHFVKPEAFLPFSAGRRACLGEPLARMELFLFFTSLLQHFSFSVPTGQPRPSHHGVFAFLVSPSPYELCAVPR
# Experiments:
# CYP2C9 and 3A4 = experiment: In vitro to in vivo scaling of P450 kinetics, CYP2C9 and 3A4 combined; details: scaled to average protein concentrations in human liver microsomes
# CYP2C9 = CYP2C9 (Homo sapiens, UniProt P11712); experiment: Recombinant isozyme kinetic assay; details: CYP2C9; substrate terbinafine
# [1] = ref Terbianfine Product Monograph, Canada, 1995; cited from earlier work
# CYP2C19 = details: substrate terbinafine, ref Davis et al. (2019); cited from earlier work
# CYP3A4 = details: substrate terbinafine, ref Davis et al. (2019); cited from earlier work
# CYP2D6 = CYP2D6 (Homo sapiens, UniProt P10635); experiment: Recombinant isozyme kinetic assay; details: Pathway 1 Step 1, substrate terbinafine
# CYP2B6 = target: T1, CYP2B6; experiment: Recombinant isozyme kinetic assay
# CYP2A6 = target: T2, CYP2A6; experiment: Recombinant isozyme kinetic assay; format: in vitro ADME
# [2] = ref Vago et al., 1994, Kovarik et al., 1995; cited from earlier work
# CYP2E1 = CYP2E1 (Homo sapiens, UniProt P05181); experiment: Recombinant isozyme kinetic experiments, CYP2E1; format: in vitro ADME
# CYP2C8 = target: T3, CYP2C8; experiment: Recombinant isozyme kinetic assay; details: substrate terbinafine
# [3] = substrate: CN(C/C=C/C#CC(C)(C)C)Cc1cccc2ccccc12; experiment: cells, lysate or membranes named; details: substrate terbinafine, pH 7.4, 37.0 °C
# [4] = substrate: CN(C/C=C/C#CC(C)(C)C)Cc1cccc2ccccc12
# [5] = other: CYP2C8, Pathway 2 Step 2.1
# [6] = other: CYP2C9, Pathway 2 Step 2.1
# [7] = other: CYP1A2, Pathway 1 Step 1
# [8] = other: CYP1A2, Pathway 2 Step 2.1
# Sequence of CYP2E1 (P05181 whole entry): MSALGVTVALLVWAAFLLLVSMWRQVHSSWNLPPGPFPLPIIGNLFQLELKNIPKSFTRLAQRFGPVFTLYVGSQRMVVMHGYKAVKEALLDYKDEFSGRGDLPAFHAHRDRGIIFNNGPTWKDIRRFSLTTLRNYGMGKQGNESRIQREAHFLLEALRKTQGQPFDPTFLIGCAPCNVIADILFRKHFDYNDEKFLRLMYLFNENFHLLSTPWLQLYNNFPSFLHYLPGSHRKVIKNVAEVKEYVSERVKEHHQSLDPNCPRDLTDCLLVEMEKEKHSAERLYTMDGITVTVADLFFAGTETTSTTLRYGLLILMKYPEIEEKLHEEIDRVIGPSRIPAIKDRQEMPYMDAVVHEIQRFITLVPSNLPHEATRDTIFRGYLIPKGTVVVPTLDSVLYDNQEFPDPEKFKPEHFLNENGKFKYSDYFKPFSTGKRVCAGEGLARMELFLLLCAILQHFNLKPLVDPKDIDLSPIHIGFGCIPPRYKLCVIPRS
molecule,measurement,setting,value
CN(C/C=C/C#CC(C)(C)C)Cc1cccc2ccccc12 [terbinafine],combined contribution of CYP2C9 and 3A4 to every metabolic step,CYP2C9 and 3A4,over 60%
same,hydroxyterbinafine formation (kinetic constants),CYP2C9,undetected
same,"risk of idiosyncratic liver toxicity, one in N patients",[1],"45,000–54,000"
same,"Hill slope (n), hydroxyterbinafine formation",CYP2C19,1.40 ± 0.11
same,"Hill slope (n), terbinafine dihydrodiol formation",CYP2C19,0.58 ± 0.08
same,"Hill slope (n), hydroxyterbinafine formation",CYP3A4,1.30 ± 0.16
same,"Hill slope (n), terbinafine dihydrodiol formation",CYP3A4,2.0 ± 0.32
same,TBF-A formation (steady-state kinetic constants),CYP2D6,undetected
same,TBF-A formation (steady-state kinetic constants),"CYP2B6; Pathway 1 Step 1, substrate terbinafine",undetected
same,Km at 30 min,"CYP2B6; human, recombinant CYP2B6 Supersomes, pH 7.4, Km or S50, hydroxyterbinafine formation, substrate terbinafine",300 ± 100 µM
same,metabolite formation / role in terbinafine metabolism,CYP2A6,not able to generate metabolites; also recorded: no role
same,reported plasma terbinafine and metabolite levels,[2],≤ 3 µM
same,role in terbinafine metabolism,CYP2E1,no role
same,hydroxyterbinafine formation (kinetic constants),CYP2C8,undetected
same,terbinafine dihydrodiol formation (kinetic constants),CYP2C8,undetected
B1,Km,[3]; [5],72 ± 12 µM
same,kcat,[3]; [5],260 ± 12 pmol/min/nmol protein
B2,kcat,"[3]; other: CYP2C9, Pathway 1 Step 1",800 ± 170 pmol/min/nmol protein
same,Km,[3]; [6],20 ± 5.1 µM
same,kcat,[3]; [6],400 ± 19 pmol/min/nmol protein
same,K0.5,"[3]; other: CYP2C9, Hill equation",72 ± 92 µM
B3,Km,[3]; [7],75 ± 42 µM and 31 ± 17 µM
same,kcat,[3]; [7],100 ± 12 pmol/min/nmol protein
same,Km,[3]; [8],120 ± 23 µM
same,kcat,[3]; [8],530 ± 38 pmol/min/nmol protein
same,K0.5,"[3]; other: CYP1A2, Hill equation",130 ± 87 µM
same,K0.5,[3]; other: CYP1A2,45 ± 5.7 µM
B4,K0.5,[4],16 ± 3.2 µM and 25 ± 4.1 µM
